Measurements reported in US20250115628A1, “FLUORINATED FLUOROPHORES” (HOWARD HUGHES MEDICAL INSTITUTE, priority 2023, published 2025).

Legend:
Assay type in all cases: cell-based
[1] = tested on: U2OS cells stably expressing HaloTag®-histone H2B fusion protein; experiment: Photostability experiments in fixed cells; settings: 200 nM; 30 bleach cycles
Method: U2OS cells (ATCC) and U2OS cells stably expressing an integrated HaloTag®-histone H2B fusion protein (U2OS·H2B·HaloTag®) were cultured in Dulbecco's modified Eagle medium (DMEM, phenol red-free; Life Technologies) supplemented with 10% (v/v) fetal bovine serum (FBS, Life Technologies), 1 mM GlutaMAX (Life Technologies) and maintained at 37° C. in a humidified 5% (v/v) CO2 environment. These cell lines undergo regular mycoplasma testing by the Janelia Cell Culture Facility. For mitochondrial imaging using the HaloTag® system, U2OS cells were transiently transfected using nucleofection (Lonza) with a plasmid constitutively expressing a HaloTag®-TOMM20 fusion protein, which is located on the outer mitochondrial membrane. […]
For photostability experiments (FIG. 1611), U2OS·H2B·HaloTag® stable cells were incubated with 200 nM HaloTag® ligands (31HTL, 106HTL, and 107HTL) for 3 h at 37° C., washed 3× with dye-free media then fixed with 4% paraformaldehyde in 0.1 M phosphate buffer, pH 7.4 for 15 min at 37° C. […] To measure photobleaching, the tunable white light laser (WLL) was used to excite dyes at their λabs in constant power mode over 30 cycles; n=3 where n indicates the number of separate cellular experiments where the intensity of the entire field of view was measured at the indicated time points. […]

[2] = tested on: U2OS cells stably expressing HaloTag®-histone H2B fusion protein; experiment: Loading experiments with NIR-excited HaloTag® ligands (nuclear fluorescence); settings: 200 nM; live cells expressing HaloTag®-histone H2B; excited at λabs
Method: (§1) U2OS cells (ATCC) and U2OS cells stably expressing an integrated HaloTag®-histone H2B fusion protein (U2OS·H2B·HaloTag®) were cultured in Dulbecco's modified Eagle medium (DMEM, phenol red-free; Life Technologies) supplemented with 10% (v/v) fetal bovine serum (FBS, Life Technologies), 1 mM GlutaMAX (Life Technologies) and maintained at 37° C. in a humidified 5% (v/v) CO2 environment. These cell lines undergo regular mycoplasma testing by the Janelia Cell Culture Facility. For mitochondrial imaging using the HaloTag® system, U2OS cells were transiently transfected using nucleofection (Lonza) with a plasmid constitutively expressing a HaloTag®-TOMM20 fusion protein, which is located on the outer mitochondrial membrane. For 4^−color imaging, U2OS·H2B·HaloTag® stable cells were transiently transfected by nucleofection with plasmids constitutively expressing a SNAP-tag®-TOMM20 fusion protein, and a GFP-SKL (SKL: serine-lysine-leucine) fusion protein, a prototypical peroxisomal matrix targeting signal. All labeled cells were imaged 18-24 h post-transfection or post-plating.
For loading curve experiments (FIG. 15C), U2OS·H2B·HaloTag® stable cells were incubated with 200 nM HaloTag® ligand conjugated dyes (31HTL, 36HTL, 38HTL, 104HTL, 106HTL, 107HTL, and 108HTL) for 0-4 h at 37° C., washed 3× with dye-free media then fixed with 4% paraformaldehyde in 0.1 M phosphate buffer, pH 7.4 for 15 min at 37° C. Confocal imaging was performed on a Leica Stellaris with an HC PL APO 40×/1.25 glycerol objective using the tunable white light laser (WLL) to excite dyes at their λabs in constant power mode. Fluorescence was quantified as the integrated density of nuclear signals in single-plane images analyzed in FIJI;^82 n=100 nuclear signals per compound.

[3] = biological target: T1, U2OS cells stably expressing HaloTag®-histone H2B fusion protein (Rhodococcus rhodochrous, UniProt P0A3G2, A155T/A167V/A172T/A224E/C128F/C176G/D78G/E160K/E257K/H272N/K175M/K195N/L47V/L88M/N227D/P291S/S58T/T264A/Y273L/Y87F); experiment: Labeling and confocal microscopy using ligands 59HTL and 105HTL; settings: 200 nM, 1 h, washed
T1 construct: expressed in transfected cells
Method: as §1, with “post-plating. […]” for “post-plating.”

[4] = tested on: JM8·N4 mouse embryonic stem cells stably expressing histone H2B-HaloTag® fusion proteins; experiment: Single-particle tracking (SPT) experiments; settings: 100 Hz imaging
Method: SPT experiments were carried out as previously described.^84 JM8·N4 mouse embryonic stem cells (ESCs) stably expressing histone H2B-HaloTag® fusion proteins were generated by co-expressing the PiggyBac EF1a-H2B-HaloTag®-IRES-Neo vector with the super piggyBac transposase as described previously,85 followed by G418 selection (500 μg/mL) for 2 weeks and verified by FACS sorting/confocal imaging staining with JF549-HaloTag® ligand (84HTL; 100 nM, 30 min). Cells were seeded on 25 mm #1.5 coverglass pre-cleaned with KOH and ethanol and coated with iMatrix-511 (TaKaRa #T304) or rhLaminin-521 (Gibco™ #A^29248) according to the manufacturers' instruction. All live-cell imaging experiments were conducted using an ESC imaging medium composed of FluoroBrite DMEM (ThermoFisher) plus 15% v/v ESC-qualified FBS, 1× GlutaMax, 1×NEAA, 0.1 mM 2^−mercaptoethanol, and LIF. For comparison of 59HTL and 89HTL (FIG. 13E, 13F) the histone H2B-HaloTag® ESCs were stained with 5 nM 59HTL for 1 h or 0.1 nM 89HTL for 15 min at 37° C. with 5% (v/v) CO2 to achieve sparse labeling with approximately equal localizations per region of interest (ROI), and then washed with dye-free media 3× for 30 min each wash For comparison of 40HTL, 44HTL, 1HTL, or 89HTL (FIG. 12A-12G) the histone H2B-HaloTag® ESCs were stained with 1 nM of HaloTag® ligands for 15 min at 37° C. with 5% (v/v) CO2 to achieve sparse labeling, and then washed with dye-free media 3× for 30 min each wash.
To quantify the brightness and photostability of the HaloTag® ligands, labeled cells were mounted onto a high speed motorized Nikon Eclipse Ti-E inverted microscope equipped with the following: 100× Apo TIRF 1.49 NA objective with a correction collar; four excitation laser lines (405/488/561/642 nm) and matching TIRF quad cube (405/488/561/640 nm reflection bands); automatic TIRF illuminator with motorized X axis and manual Y axis for beam positioning and focus: perfect focus 3 system; Triple DU-897 iXon Ultra EMCCD cameras on a Cairn Tri-cam emission splitter with filters 525/50 (GFP) 600/50 (RFP) and 705/72 (Cy5); humidified incubation chamber maintained at 37° C. with 5% v/v CO2 (Tokai Hit). SPT was performed at 100 Hz for the comparison of 59HTL and 89HTL (FIG. 13E, 13F) and 50 Hz for the comparison of 40HTL, 44HTL, 1HTL, or 89HTL (FIG. 12A-12G); the imaging session was performed for ˜5000 frames using 100% of maximal excitation power (˜120 mW at the fiber end before the TIRF unit). […] For the comparison of HaloTag® ligands 59HTL and 89HTL (FIG. 13E, 13F) and the comparison of compounds 40HTL, 44HTL, 1HTL, and […] (FIG. 12A-12G), the fluorophores were excited with a 647 nm laser. To minimize drift during imaging, the incubation chamber was fully thermally equilibrated, and all imaging was conducted in an isolated ultra-clean room with minimal mechanical vibrations. The microscope, laser lines, and camera integration were controlled using the Nikon NIS-Elements software. Cells with obvious movement during acquisition were removed from further analysis. SMT analysis was based on multiple target tracing 86 (MTT) with tracking parameters similar to previous work.^84 For SPT brightness (photon counts/molecule/s), intensity values from sparsely-labeled molecules were analyzed. For the comparison of HaloTag® ligands 59HTL and 89HTL (FIG. 13E, 13F): n=147,298 single-molecule events using 59HTL; n=100,392 single-molecule events using 89HTL. […]

T1 sequence (P0A3G2 other isoform, or with tags, fused parts or gaps with the stated changes): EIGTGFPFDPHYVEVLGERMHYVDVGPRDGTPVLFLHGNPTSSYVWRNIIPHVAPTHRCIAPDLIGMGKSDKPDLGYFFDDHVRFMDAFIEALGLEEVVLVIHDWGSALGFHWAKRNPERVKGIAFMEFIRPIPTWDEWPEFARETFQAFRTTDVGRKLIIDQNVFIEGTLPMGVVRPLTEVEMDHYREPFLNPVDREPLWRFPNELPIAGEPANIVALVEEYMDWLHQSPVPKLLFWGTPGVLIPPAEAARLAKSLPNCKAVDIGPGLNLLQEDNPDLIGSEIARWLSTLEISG

CCc1cc2c(c3c1=[N+](C)CCC3)[Si](C)(C)c1c(cc3c4c1CCCN4CCC3)C=2c1c(F)c(C(=O)NCCOCCOCCCCCCCl)c(F)c(F)c1C(=O)[O-] [31HTL, JF698-HaloTag® ligand]
brightness and photostability compared with 107HTL and 106HTL [1]: brighter and more photostable | nuclear intensity compared to the other ligands [2]: > 3 fold

CCc1cc2c(c3c1=[N+](C)CCC3)C(C)(C)c1cc3c(cc1C=2c1c(F)c(C(=O)NCCOCCOCCCCCCCl)c(F)c(F)c1C(=O)[O-])C(C)CC(C)(C)N3CC (stereo not drawn) [59HTL, JF657-HaloTag® ligand]
nuclear labeling of histone H2B-HaloTag® in live cells [3]: excellent nuclear staining with little cellular background after washing | SPT brightness (photons/s) compared with 89HTL [4]: significant improvement in brightness | SPT localizations over time [4]: consistent localizations over time

ATTO 647N-HaloTag® ligand [105HTL, reference compound]
nuclear labeling of histone H2B-HaloTag® in live cells [3]: does not show appreciable labeling in the nucleus
